In EPA's CvTdb concentration-time database:

Experiments:
Test in all cases: concentration in plasma after dosing
Rat [1] = settings: 10 min; dosed: Emodin; 5 mg/kg; iv; Male; F344/N
Rat [2] = settings: 9 h; dosed: Emodin; 80 mg/kg; oral; Male; F344/N
Rat [3] = settings: 40 min; dosed: Emodin; 5 mg/kg; iv; Male; F344/N
Rat [4] = settings: 6 h; dosed: Emodin; 80 mg/kg; oral; Female; F344/N
Rat [5] = settings: dosed: Emodin, 5 mg/kg, iv, Male, F344/N
Rat [6] = settings: 10 min; dosed: Emodin; 5 mg/kg; iv; Female; F344/N
Rat [7] = settings: 9 h; dosed: Emodin; 80 mg/kg; oral; Male; F344/N; remark: listed apart in the source
Rat [8] = settings: 9 h; dosed: Emodin; 80 mg/kg; oral; Female; F344/N
Rat [9] = settings: 20 min; dosed: Emodin; 5 mg/kg; iv; Male; F344/N
Rat [10] = settings: dosed: Emodin, 5 mg/kg, iv, Female, F344/N
Rat [11] = settings: dosed: Emodin, 80 mg/kg, oral, Female, F344/N
Rat [12] = settings: dosed: Emodin, 80 mg/kg, oral, Female, F344/N; remark: listed apart in the source
Rat [13] = settings: 40 min; dosed: Emodin; 5 mg/kg; iv; Male; F344/N; remark: listed apart in the source
Rat [14] = settings: 9 h; dosed: Emodin; 80 mg/kg; oral; Female; F344/N; remark: listed apart in the source
Rat [15] = settings: 10 min; dosed: Emodin; 5 mg/kg; iv; Female; F344/N; remark: listed apart in the source
Rat [16] = settings: 10 min; dosed: Emodin; 5 mg/kg; iv; Male; F344/N; remark: listed apart in the source
Rat [17] = settings: 20 min; dosed: Emodin; 5 mg/kg; iv; Female; F344/N
Rat [18] = settings: dosed: Emodin, 5 mg/kg, iv, Female, F344/N; remark: listed apart in the source
Rat [19] = settings: dosed: Emodin, 5 mg/kg, iv, Female, F344/N; remark: listed apart in the source
Rat [20] = settings: 6 h; dosed: Emodin; 80 mg/kg; oral; Male; F344/N
Rat [21] = settings: dosed: Emodin, F344/N
Rat [22] = settings: dosed: Emodin, 5 mg/kg, iv, Male, F344/N; remark: listed apart in the source
Rat [23] = settings: 40 min; dosed: Emodin; 5 mg/kg; iv; Female; F344/N
Rat [24] = settings: 6 h; dosed: Emodin; 80 mg/kg; oral; Female; F344/N; remark: listed apart in the source
Rat [25] = settings: 12 h; dosed: Emodin; 80 mg/kg; oral; Male; F344/N
Rat [26] = settings: 20 min; dosed: Emodin; 5 mg/kg; iv; Female; F344/N; remark: listed apart in the source
Rat [27] = settings: 5 min; dosed: Emodin; 5 mg/kg; iv; Male; F344/N
Rat [28] = settings: dosed: Emodin, 5 mg/kg, iv, Female, F344/N; remark: listed apart in the source
Rat [29] = settings: 20 min; dosed: Emodin; 5 mg/kg; iv; Male; F344/N; remark: listed apart in the source
Rat [30] = settings: 40 min; dosed: Emodin; 5 mg/kg; iv; Female; F344/N; remark: listed apart in the source
Rat [31] = settings: 5 min; dosed: Emodin; 5 mg/kg; iv; Male; F344/N; remark: listed apart in the source

Cc1cc(O)c2c(c1)C(=O)c1cc(O)cc(O)c1C2=O [Emodin]
Settings | concentration in plasma [ng/mL]
Rat [1] | 7370
Rat [2] | 153
Rat [3] | 1700
Rat [4] | 151
Rat [6] | 2260
Rat [7] | 155
Rat [8] | 232
Rat [9] | 4360
Rat [13] | 2200
Rat [14] | 198
Rat [15] | 3010
Rat [16] | 6180
Rat [17] | 1190
Rat [20] | 108
Rat [23] | 928
Rat [24] | 165
Rat [25] | 110
Rat [26] | 794
Rat [27] | 8480
Rat [29] | 5930
Rat [30] | 963
Rat [31] | 8390

Settings | concentration in plasma [ng/mL]
Rat [5], 1 h | 229
Rat [5], 2 min | 10500
Rat [10], 1.5 h | 151
Rat [10], 5 min | 5160
Rat [11], 3 h | 136
Rat [11], 12 h | 175
Rat [12], 3 h | 255
Rat [12], 12 h | 184
Rat [18], 1.5 h | 128
Rat [18], 5 min | 4780
Rat [19], 1 h | 158
Rat [19], 2 min | 6490
Rat [22], 1 h | 219
Rat [22], 2 min | 8580
Rat [28], 1 h | 163
Rat [28], 2 min | 5990

concentration in plasma [ng/mL], Rat [21]
Settings | Female | Male
1 h, 5 mg/kg, iv | 256 | 205
1.5 h, 5 mg/kg, iv | 119 | –
1.5 h, 80 mg/kg, oral | 136 | –
2 min, 5 mg/kg, iv | 4970 | 8380
3 h, 80 mg/kg, oral | 115 | –
5 min, 5 mg/kg, iv | 3040 | 7820
6 h, 40 mg/kg, oral | 114 | –
6 h, 80 mg/kg, oral | 143 | 159
8 h, 40 mg/kg, oral | 111 | –
9 h, 80 mg/kg, oral | 269 | 126
10 min, 5 mg/kg, iv | 1650 | 4660
12 h, 80 mg/kg, oral | 167 | 116
20 min, 5 mg/kg, iv | 2400 | 4970
40 min, 5 mg/kg, iv | 740 | 1980
